Biological target: T1, human M1 receptor (hCHRM1) (Homo sapiens, UniProt P11229)
T1 construct: expressed in transfected cells; host or cells: CHO-K1
T1 sequence (P11229 1-460): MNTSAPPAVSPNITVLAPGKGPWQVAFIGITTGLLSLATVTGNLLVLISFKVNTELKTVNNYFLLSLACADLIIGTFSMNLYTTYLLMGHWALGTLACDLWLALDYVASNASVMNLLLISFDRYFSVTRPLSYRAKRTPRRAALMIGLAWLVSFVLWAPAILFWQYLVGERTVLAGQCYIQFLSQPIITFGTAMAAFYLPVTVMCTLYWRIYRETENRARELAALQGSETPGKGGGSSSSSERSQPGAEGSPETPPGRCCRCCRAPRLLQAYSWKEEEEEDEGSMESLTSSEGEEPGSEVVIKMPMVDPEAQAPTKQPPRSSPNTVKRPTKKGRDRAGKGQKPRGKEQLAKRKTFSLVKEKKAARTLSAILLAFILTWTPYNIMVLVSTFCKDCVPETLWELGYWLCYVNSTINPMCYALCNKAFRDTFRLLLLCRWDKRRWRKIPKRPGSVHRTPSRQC
Experiment: Measurement of M1 receptor positive allosteric modulator (M1PAM) activity, calcium fluorescence with acetylcholine at EC20
Type: cell-based
Conditions: for activity (%) at 10 μM: 10 μM test compound, 100% = 1 μM acetylcholine, 0% = DMSO; for EC50: CHO-K1 cells expressing hCHRM1, acetylcholine at EC20 (final 0.8-1.0 nM), read-out: IP value (inflection point in the concentration-dependent curve)
Procedure: Measurement of M1 Receptor Positive Allosteric Modulator (M1PAM) Activity
The activity of a test compound in the presence of acetylcholine at EC20 concentration (final concentration 0.8-1.0 nM), which affords an action corresponding to about 20% of the maximum activity, was measured as PAM activity. The method is as follows. CHO-K1 cells stably expressing a human M1 receptor (hCHRM1) were plated on a 384-well black clear bottom plate (BD Falcon) at 5,000 cells/well, and cultured in an incubator at 37° C., 5% CO2 for 1 day. The medium in the cell plate was removed, and assay buffer A containing calcium indicator (Recording medium (DOJINDO LABORATORIES), 0.1% BSA (Wako Pure Chemical Industries, Ltd.), 2.5 μg/mL Fluo-4 AM (DOJINDO LABORATORIES), 0.08% Pluronic F127 (DOJINDO LABORATORIES), 1.25 mM probenecid (DOJINDO LABORATORIES)) was added at 30 μL/well. The cells were left standing in the incubator at 37° C., 5% CO2 for 30 min, and further left standing at room temperature for 30 min. A test compound prepared by diluting with assay buffer B (HBSS (Invitrogen), 20 mM HEPES (Invitrogen), 0.1% BSA) containing 3.2-4.0 nM acetylcholine was added at 10 μL/well, and the fluorescence was measured by FDSS/μCELL (Hamamatsu Photonics K.K.) for 1 min every for 1 second. With the definition that the amount of change in the fluorescence on addition of acetylcholine (final concentration 1 μM) is 100% and that on addition of DMSO instead of a test compound is 0%, the activity (%) of the test compound was calculated, and the inflection point in the concentration-dependent curve of the test compound was calculated as IP values.

SMILES | activity (%) at 10 μM [%] | EC50 [nM]
Cn1cc(-c2ccc(C(F)c3cc(C(=O)N[C@H]4CCCC[C@@H]4O)nc4ccoc34)cn2)cn1 (stereo partly drawn) [Example 70, 7-(fluoro(6-(1-methyl-1H-pyrazol-4-yl)pyridin-3-yl)methyl)-N-((1S,2S)-2-hydroxycyclohexyl)furo[3,2-b]pyridine-5-carboxamide] | 99 | 1.2
CCNC(=O)c1ccc(Cc2cc(C(=O)N[C@H]3CCOC[C@@H]3O)nc3c2OCC3)cc1F [Example 81, 1,5-anhydro-2,3-dideoxy-3-(((7-(4-(ethylcarbamoyl)-3-fluorobenzyl)-2,3-dihydrofuro[3,2-b]pyridin-5-yl)carbonyl)amino)-L-threo-pentitol] | 108 | 5.3
O=C(N[C@H]1CCOC[C@@H]1O)c1cc(Cc2ccc(C(=O)NC3CC3)c(F)c2)c2c(n1)CCO2 [Example 82, 1,5-anhydro-3-(((7-(4-(cyclopropylcarbamoyl)-3-fluorobenzyl)-2,3-dihydrofuro[3,2-b]pyridin-5-yl)carbonyl)amino)-2,3-dideoxy-L-threo-pentitol] | 110 | 6.4
O=C(N[C@H]1CCOC[C@@H]1O)c1cc(Cc2ccc(C(=O)NC[C@H]3CCCO3)c(F)c2)c2c(n1)CCO2 [Example 88, 1,5-anhydro-2,3-dideoxy-3-(((7-(3-fluoro-4-(((2R)-tetrahydrofuran-2-ylmethyl)carbamoyl)benzyl)-2,3-dihydrofuro[3,2-b]pyridin-5-yl)carbonyl)amino)-L-threo-pentitol] | 111 | 7.6
CC(C)(C)OCCNC(=O)c1ccc(Cc2cc(C(=O)N[C@H]3CCOC[C@@H]3O)nc3c2OCC3)cc1F [Example 89, 1,5-anhydro-3-(((7-(4-((2-tert-butoxyethyl)carbamoyl)-3-fluorobenzyl)-2,3-dihydrofuro[3,2-b]pyridin-5-yl)carbonyl)amino)-2,3-dideoxy-L-threo-pentitol] | 110 | 25
O=C(N[C@H]1CCOC[C@@H]1O)c1cc(Cc2ccc(C(=O)NCc3ccc(O)cc3)c(F)c2)c2c(n1)CCO2 [Example 90, 1,5-anhydro-2,3-dideoxy-3-(((7-(3-fluoro-4-((4-hydroxybenzyl)carbamoyl)benzyl)-2,3-dihydrofuro[3,2-b]pyridin-5-yl)carbonyl)amino)-L-threo-pentitol] | 113 | 1.4
O=C(O)CNC(=O)c1ccc(Cc2cc(C(=O)N[C@H]3CCOC[C@@H]3O)nc3c2OCC3)cc1F [Example 96, ((2-fluoro-4-((5-(((3R,4S)-3-hydroxytetrahydro-2H-pyran-4-yl)carbamoyl)-2,3-dihydrofuro[3,2-b]pyridin-7-yl)methyl)benzoyl)amino)acetic acid] | 107 | 11
CC(C)SCCNC(=O)c1ccc(Cc2cc(C(=O)N[C@H]3CCOC[C@@H]3O)nc3c2OCC3)cc1F [Example 97, 1,5-anhydro-2,3-dideoxy-3-(((7-(3-fluoro-4-((2-(isopropylsulfanyl)ethyl)-carbamoyl)benzyl)-2,3-dihydrofuro[3,2-b]pyridin-5-yl)carbonyl)amino)-L-threo-pentitol] | 107 | 5.1
CN(C)C(=O)CNC(=O)c1ccc(Cc2cc(C(=O)N[C@H]3CCOC[C@@H]3O)nc3c2OCC3)cc1F [Example 100, 1,5-anhydro-2,3-dideoxy-3-(((7-(4-((2-(dimethylamino)-2-oxoethyl)carbamoyl)-3-fluorobenzyl)-2,3-dihydrofuro[3,2-b]pyridin-5-yl)carbonyl)amino)-L-threo-pentitol] | 103 | 3.8
O=C(N[C@H]1CCOC[C@@H]1O)c1cc(Cc2ccc(C(=O)NC[C@H]3CCCO3)c(F)c2)c2occc2n1 [Example 105, 1,5-anhydro-2,3-dideoxy-3-(((7-(3-fluoro-4-(((2R)-tetrahydrofuran-2-ylmethyl)carbamoyl)benzyl)-furo[3,2-b]pyridin-5-yl)carbonyl)amino)-L-threo-pentitol] | 105 | 4.3
COCCNC(=O)c1ccc(C(C)c2cc(C(=O)N[C@H]3CCOC[C@@H]3O)nc3ccoc23)cc1F (stereo partly drawn) [Example 111, 1,5-anhydro-2,3-dideoxy-3-(((7-(1-(3-fluoro-4-((2-methoxyethyl)carbamoyl)phenyl)ethyl)furo[3,2-b]pyridin-5-yl)carbonyl)amino)-L-threo-pentitol] | 107 | 8.8
CN1Cc2cc(Cc3cc(C(=O)N[C@H]4CCOC[C@@H]4O)nc4c3OCC4)ccc2C1=O [Example 113, 1,5-anhydro-2,3-dideoxy-3-(((7-((2-methyl-1-oxo-2,3-dihydro-1H-isoindol-5-yl)methyl)-2,3-dihydrofuro[3,2-b]pyridin-5-yl)carbonyl)amino)-L-threo-pentitol] | 109 | 21

— patent US12378256B2, “Heterocyclic compound” (Takeda Pharmaceutical Company Limited, priority 2017, dated 2025)
